In PubChem BioAssay (NCI):
Where “and” joins values, the source holds several entries; their conditions need not be identical. Identical values can stand only once.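 In this assay, cells in 96-well plates receive the compound at five concentrations for 48 hours. Endpoints are linearly interpolated between the surrounding concentrations. Abbreviation: GI50, concentration required for 50% inhibition of growth. TGI denotes the concentration required for complete inhibition of growth.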

Key:
Experiment in all cases: growth of human tumour cells (NCI), 48 h
[1] = tested on: OVCAR-3 ovarian
[2] = tested on: SF-268 CNS
[3] = tested on: HCC-2998 colon
[4] = tested on: ACHN renal
[5] = tested on: TK-10 renal
[6] = tested on: UACC-257 melanoma
[7] = tested on: NCI-H226 lung
[8] = tested on: U251 CNS
[9] = tested on: HT29 colon
[10] = tested on: MCF7 breast

Structure (SMILES)	TGI [1]	TGI [2]	TGI [3]	TGI [4]	TGI [5]	TGI [6]	TGI [7]	TGI [8]	TGI [9]	GI50 [10]	TGI [10]	GI50 [1]	GI50 [2]	GI50 [3]	GI50 [4]	GI50 [5]	GI50 [6]	GI50 [7]	GI50 [8]	GI50 [9]
O=C(CCN(C(=O)O)S(=O)(=O)c1ccc(NC(=O)c2ccccc2)cc1)Nc1ccccc1	> 100 µM	> 100 µM	> 100 µM	> 100 µM	> 100 µM	> 86.3 µM	> 100 µM	> 100 µM	> 100 µM											
COc1cc(OCc2cccc(-c3ccc(C(O)c4nccs4)cc3)c2C)cc(OC)c1C=O (stereo not drawn)	4.36 µM	12.3 µM	7.08 µM	6.68 µM	13.7 µM	5.11 µM	2.7 µM	11.3 µM	13.6 µM	1.69 µM	4.81 µM	1.62 µM	2.92 µM	2.28 µM	1.72 µM	1.69 µM	0.842 µM	0.37 µM	2.74 µM	2.83 µM
N=C(N)C1CN(CCc2c[nH]c3ccccc23)C(=O)NC1=O (stereo not drawn)	> 100 µM	> 100 µM	> 100 µM	> 100 µM	> 100 µM	> 100 µM	> 100 µM	> 100 µM	> 100 µM		> 100 µM									
COc1cc(-c2oc(=O)ccc2C#Cc2ccccn2)cc(OC)c1OC	2.76 µM	> 100 µM	4.6 µM	> 100 µM	> 100 µM	> 61.8 µM	> 100 µM	> 86 µM	> 21 µM	0.798 µM	> 100 µM	0.733 µM	5.56 µM	0.236 µM	11.7 µM	4.98 µM	4.12 µM	7.76 µM	3.51 µM	0.607 µM
CN1CCN(C2CCN(C(=O)Nc3cc(Oc4ccc(NC(=O)C5(C(=O)Nc6ccc(F)cc6)CC5)c(F)c4)ccn3)CC2)CC1	> 3.02 µM	> 2.96 µM	> 10 µM	> 10 µM	> 10 µM	2.27 µM	> 3.12 µM	> 10 µM	> 4.38 µM	1.09 µM	> 10 µM			> 2.04 µM	1.3 µM	0.365 µM	0.73 µM			0.806 µM
O=[N+]([O-])c1cccc(C2=NN(c3ccccc3)C[N+](c3ccc(Br)cc3)=N2)c1		> 100 µM	> 100 µM	> 100 µM	> 100 µM	> 100 µM		> 100 µM	> 100 µM											
CCCCCCCCCCCCCC(=O)OCC(C[As](=O)(O)O)OC(=O)CCCCCCCCCCCCC (stereo not drawn)	> 100 µM	> 100 µM	> 100 µM	> 100 µM	> 100 µM	> 100 µM	> 100 µM	> 100 µM	> 100 µM											
CC1=C(C(=O)Nc2ccc(F)c(Cl)c2)C(c2ccccc2O)NC(=S)N1 (stereo not drawn)	42.6 µM	> 50 µM		> 50 µM	> 50 µM	> 50 µM	> 50 µM	> 50 µM				12.6 µM	9.43 µM		> 50 µM	> 50 µM	19.8 µM	> 50 µM	30.2 µM	
CC1(C)S[C@@H]2[C@H](NC(=O)C3(N)CCCCC3)C(=O)N2[C@H]1C(=O)O	> 100 µM	> 100 µM	> 100 µM	> 100 µM	> 100 µM	> 100 µM	> 100 µM	> 100 µM	> 100 µM		> 100 µM									
COC(=O)C1c2cc3c(cc2C(OC2OC(C)C(OC)C(C)(OC)C2OC)CC1(C)O)C(=O)c1c(O)cc2c(c1C3=O)OC1OC2(C)C(O)C([N+](C)(C)[O-])C1O (stereo not drawn)	> 32.3 µM	> 21.4 µM		> 100 µM	> 100 µM						> 100 µM									
COc1cc(Nc2ncccc2C(=O)NCc2cn(Cc3cccc(Oc4ccccc4)c3)nn2)cc(OC)c1	> 100 µM	> 100 µM	> 100 µM	> 100 µM	> 100 µM	> 100 µM	> 100 µM	> 100 µM	> 100 µM			3.69 µM	5.43 µM	9.6 µM	6.9 µM	51.6 µM	4.86 µM	9.82 µM	4.58 µM	3.88 µM
CC(C)CCC1CC2C(=O)N(c3ccccc3)C(=O)C2c2[nH]c3ccccc3c21 (stereo not drawn)	7.63 µM	13.5 µM	11.2 µM	21.5 µM	16.1 µM		12.4 µM	3.5 µM	11 µM											
CC(=O)N=C1N(/C=C2\C(=O)Oc3ccccc3C2=O)C(=O)/C(=C/c2cccc(Cl)c2Cl)N1C	20 µM	> 100 µM	31.4 µM	34.3 µM		> 100 µM	94.2 µM	> 100 µM	49.1 µM		> 100 µM									
[N-]=[N+]=NC1(Cc2ccccc2)C(=O)c2cccc3c2N(CCC3)C1=O (stereo not drawn)		> 100 µM		> 100 µM	> 100 µM	> 100 µM	> 100 µM	> 100 µM	> 100 µM											
O=C1CCC2(c3ccc(Cl)cc3)Nc3ncccc3N12 (stereo not drawn)	> 100 µM	> 100 µM	> 100 µM	> 100 µM	> 100 µM	> 100 µM	> 100 µM	> 100 µM	> 100 µM											
C#CCOc1cccc(-c2ncc3cc(NC(=O)CCl)ccc3n2)c1	3.79 µM	5.25 µM	3.4 µM	3.19 µM	4.85 µM	3.96 µM	8.17 µM	3.23 µM	3.99 µM			1.93 µM	2.03 µM	1.91 µM	1.72 µM	2.6 µM	2.02 µM	2.6 µM	1.78 µM	2.02 µM
N#CN/C(N)=N/CO	> 100 µM	> 100 µM	> 100 µM	> 100 µM	> 100 µM	> 100 µM	> 100 µM	> 90.2 µM	> 100 µM											
C(=NCCN1CCOCC1)=NC1CCCCC1	> 100 µM	> 100 µM		> 100 µM	> 100 µM	> 100 µM	> 100 µM	> 100 µM	> 100 µM		> 100 µM									
CC1(C)COC(C2(C)C(=O)C=C(c3ccccc3)c3ccccc32)=N1 (stereo not drawn)	> 100 µM	> 100 µM		> 100 µM	> 100 µM	> 100 µM	> 100 µM	> 100 µM	99 µM											
O=C1CCC(Cl)=CC2CCCN12 (stereo not drawn)			> 100 µM	> 100 µM	> 100 µM	> 100 µM	> 100 µM	> 100 µM	> 100 µM											

Structure (SMILES)	TGI [1]	TGI [2]	TGI [3]	TGI [4]	TGI [5]	TGI [6]	TGI [7]	TGI [8]	TGI [9]	GI50 [10]	TGI [10]	GI50 [1]	GI50 [2]	GI50 [3]	GI50 [4]	GI50 [5]	GI50 [6]	GI50 [7]	GI50 [8]	GI50 [9]
O=C(Nc1ccn(CCO)c(=O)n1)c1ccccc1	> 100 µM	> 100 µM		> 100 µM	> 100 µM	> 100 µM	> 100 µM	> 100 µM	> 100 µM											
N.N.N.N.O=C([O-])CCl.O=C([O-])CCl.[Co+3].[O-][Cl+3]([O-])([O-])[O-]	> 100 µM	> 100 µM	> 100 µM	> 100 µM	> 100 µM	> 100 µM		> 100 µM	> 100 µM			> 100 µM	> 100 µM	> 100 µM	> 100 µM	> 100 µM	> 100 µM		> 100 µM	> 100 µM
CCCCOC(=O)CNC(=O)OC/C=C/C#CC#C/C=C/COC(=O)NCC(=O)OCCCC	> 100 µM	> 100 µM	> 100 µM	> 100 µM	> 100 µM	> 10 µM	> 10 µM	> 100 µM	> 100 µM			> 100 µM	> 100 µM	> 100 µM	> 100 µM	> 100 µM			> 100 µM	> 100 µM
Cc1c2n(c(=O)[nH]c1=O)C1OC(CO)C(O2)C1O (stereo not drawn)	> 100 µM	> 100 µM		> 100 µM	> 100 µM	> 100 µM	> 100 µM	> 100 µM	> 100 µM											
O=C1c2ccccc2C(=O)N1CCn1ccc(NC(c2ccccc2)(c2ccccc2)c2ccccc2)nc1=O	65.8 µM	45.3 µM	37.7 µM	92.7 µM	69.5 µM	34.7 µM	34.1 µM	32.3 µM	30.5 µM											
CC(C)C(CCl)NC(=O)c1cccc(C(=O)N[C@H](CCl)C(C)C)n1 (stereo in doubt)	> 100 µM	> 100 µM	> 100 µM	> 100 µM	> 100 µM		> 100 µM	> 100 µM	> 100 µM											
CC(=O)CCn1ncc(Cl)c(Cl)c1=O	27.5 µM	28 µM	21.9 µM	30.9 µM	> 100 µM	31.5 µM	31.7 µM		34.1 µM											
CSc1nc(=O)n(CCC#N)nc1SC	32 µM	53.1 µM	31.9 µM	> 100 µM	> 100 µM		84.2 µM	> 100 µM	> 100 µM		9.04 µM									
Nc1nc(Cl)cc(NCCCCCCCCNc2cc(Cl)nc(N)n2)n1	> 100 µM	> 100 µM	> 100 µM	0.735 µM	> 100 µM	> 100 µM	48.5 µM	> 100 µM	> 100 µM											
CCCCC#CC1=C(Br)C(=O)OC1	2.27 µM	10.2 µM		> 21 µM	4.53 µM	5.67 µM	26.6 µM	> 20.1 µM	> 22.1 µM	1.03 µM	8.08 µM	0.453 µM	2.47 µM		2.24 µM	1.8 µM	2.2 µM	3.76 µM	1.59 µM	2.85 µM
CN1CC(=O)N2Cc3ccccc3-n3cccc3C2C1 (stereo not drawn)	> 100 µM	> 100 µM	> 100 µM	> 100 µM	> 100 µM	> 100 µM		> 100 µM	> 100 µM											
O=C(O)c1nnsc1-c1ccc(-c2snnc2C(=O)O)cc1	> 100 µM	> 100 µM		> 100 µM	> 100 µM	> 100 µM	> 100 µM	> 100 µM	> 100 µM		> 100 µM									
O=c1/c(=C/c2ccccc2[N+](=O)[O-])sc2nnc(-c3ccco3)n12	32.4 µM	46.3 µM	43.4 µM	> 100 µM	> 100 µM	> 100 µM	61 µM	36.6 µM	> 100 µM											
OC(CC1SCCCS1)c1ccccc1 (stereo not drawn)	> 100 µM	> 100 µM	> 100 µM	> 100 µM	> 100 µM	> 100 µM	> 100 µM	> 100 µM	> 100 µM											
COc1ccc(/C=C\[N+](=O)[O-])cc1OC	8.73 µM	20.5 µM		13.9 µM	15.7 µM	3.38 µM	88.8 µM	4.72 µM	5.87 µM	3.05 µM	15.9 µM	3 µM	5.88 µM		3.68 µM	3.55 µM	0.919 µM	22.9 µM	1.5 µM	1.87 µM
COC(=O)C(C(=O)c1ccccc1)C(C(=O)C(=O)Nc1ccc(OC)cc1OC)C(=O)C(=O)c1ccc(C)cc1 (stereo not drawn)	> 100 µM	> 100 µM	> 100 µM	> 100 µM	> 100 µM	> 100 µM	> 100 µM	> 100 µM	> 100 µM											
Cc1cn2c(=O)c3ncn(C4OC(CO)C(O)C4O)c3n(C)c2n1 (stereo not drawn)	> 100 µM	> 100 µM	> 100 µM	> 100 µM	> 100 µM	> 100 µM	> 100 µM	> 100 µM	> 100 µM											
Clc1ccc2c(c1)[nH]c1c2nc2ccccn21		87.7 µM and 37.1 µM	63.3 µM and 13.8 µM	83 µM	31.2 µM	89.4 µM and 32.3 µM	44.7 µM and 63.9 µM	> 100 µM and 24.5 µM	45.4 µM and 28.9 µM						28.1 µM				> 100 µM and 11.9 µM	
COc1ccc2occ(CCC(=O)O)c2c1	> 100 µM		> 100 µM	> 100 µM	> 100 µM	> 100 µM		> 100 µM	> 100 µM											
CCC12CCCN(Cc3ccccc3)C1c1c(n(C)c3ccccc13)CC2 (stereo not drawn)	215 µM	> 253 µM	> 253 µM	> 253 µM	> 253 µM	> 253 µM	> 253 µM	> 253 µM	> 253 µM											
